From patent publication US11013817B2, “Nanoparticles for drug delivery to treat bone disease” (The Cleveland Clinic Foundation, priority 2016, dated 2021)

Legend:
[1] = Solid state solubility of PTX and TXT in polymers (phase separation in cast films); type: physicochemical; set-up: key: +ve: Phase separation; −ve: No phase separation
Source text: For this example, polymer and drug solutions in chloroform at different % of drug to polymer were casted into films on glass slides. Following solvent evaporation of chloroform in a chemical hood overnight, the casted films were observed under a light microscope. Phase separation was clearly evident from crystallization of the drug in the polymer film whereas the films were homogeneous when there was no phase separation.

[2] = test system: PC-3 cells; assay: Cytotoxicity of TXT and TXT-NPs in PC-3 cells; type: cell-based; conditions: for IC50 / IC90: Homo sapiens
Source text: (§1) In order to confirm the efficacy of TXT NPs, we determined IC50 of the drug and drug encapsulated in NPs in PC-3 and DU145 cells.

[3] = test system: DU145 cells; assay: Cytotoxicity of TXT and TXT-NPs in DU145 cells; type: cell-based; conditions: DU145, 5 day
Source text: as §1

## CC(=O)O[C@@]12CO[C@@H]1C[C@H](O)[C@@]1(C)C(=O)[C@H](O)C3=C(C)[C@@H](OC(=O)[C@H](O)[C@@H](NC(=O)OC(C)(C)C)c4ccccc4)C[C@@](O)([C@@H](OC(=O)c4ccccc4)[C@H]21)C3(C)C [Docetaxel, (2R,3S)-N-carboxy-3-phenylisoserine, N-tert-butyl ester, 13-ester with 5b-20-epoxy-12a,4,7b,10b,13a-hexahydroxytax-11-en-9-one 4-acetate 2-benzoate, trihydrate]
[1]; drug 1% w/w, polymer inherent viscosity 0.16 dL/g, Lactide/Glycolide 50/50
  Phase Separation: −
[1]; drug 1% w/w, polymer inherent viscosity 0.18 dL/g, Lactide/Glycolide 75/25
  Phase Separation: +
[1]; drug 1% w/w, polymer inherent viscosity 0.26-0.54 dL/g, Lactide/Glycolide 50/50, Ester Terminated
  Phase Separation: +
[1]; drug 1% w/w, polymer inherent viscosity 0.39 dL/g, Lactide/Glycolide 50/50
  Phase Separation: −
[1]; drug 1% w/w, polymer inherent viscosity 0.55-0.75 dL/g, Lactide/Glycolide 50/50, Carbohydrate end Group
  Phase Separation: +
[1]; drug 1% w/w, polymer inherent viscosity 0.63 dL/g, Lactide/Glycolide 85/15
  Phase Separation: +
[1]; drug 1% w/w, polymer inherent viscosity 0.64 dL/g, Lactide/Glycolide 65/35
  Phase Separation: +
[1]; drug 1% w/w, polymer inherent viscosity 0.64 dL/g, Lactide/Glycolide 75/25
  Phase Separation: +
[1]; drug 1% w/w, polymer inherent viscosity 0.67 dL/g, Lactide/Glycolide 65/35
  Phase Separation: −
[1]; drug 1% w/w, polymer inherent viscosity 0.69 dL/g, Lactide/Glycolide 50/50 (first of two such lines, r12)
  Phase Separation: −
[1]; drug 1% w/w, polymer inherent viscosity 0.69 dL/g, Lactide/Glycolide 50/50 (second of two such lines, r13)
  Phase Separation: +
[1]; drug 1% w/w, polymer inherent viscosity 0.76-0.94 dL/g, Lactide/Glycolide 50/50
  Phase Separation: +
[1]; drug 1% w/w, polymer inherent viscosity 0.87 dL/g, Lactide/Glycolide 50/50
  Phase Separation: +
[1]; drug 1% w/w, polymer inherent viscosity 0.95-1.20 dL/g, Lactide/Glycolide 50/50
  Phase Separation: −
[1]; drug 1% w/w, polymer inherent viscosity 1.15 dL/g, Lactide/Glycolide 50/50
  Phase Separation: +
[1]; drug 1% w/w, polymer inherent viscosity 1.24 dL/g, Lactide/Glycolide 50/50
  Phase Separation: +
[1]; drug 5% w/w, polymer inherent viscosity 0.16 dL/g, Lactide/Glycolide 50/50
  Phase Separation: −
[1]; drug 5% w/w, polymer inherent viscosity 0.18 dL/g, Lactide/Glycolide 75/25
  Phase Separation: +
[1]; drug 5% w/w, polymer inherent viscosity 0.26-0.54 dL/g, Lactide/Glycolide 50/50, Ester Terminated
  Phase Separation: +
[1]; drug 5% w/w, polymer inherent viscosity 0.39 dL/g, Lactide/Glycolide 50/50
  Phase Separation: −
[1]; drug 5% w/w, polymer inherent viscosity 0.55-0.75 dL/g, Lactide/Glycolide 50/50, Carbohydrate end Group
  Phase Separation: +
[1]; drug 5% w/w, polymer inherent viscosity 0.63 dL/g, Lactide/Glycolide 85/15
  Phase Separation: +
[1]; drug 5% w/w, polymer inherent viscosity 0.64 dL/g, Lactide/Glycolide 65/35
  Phase Separation: +
[1]; drug 5% w/w, polymer inherent viscosity 0.64 dL/g, Lactide/Glycolide 75/25
  Phase Separation: +
[1]; drug 5% w/w, polymer inherent viscosity 0.67 dL/g, Lactide/Glycolide 65/35
  Phase Separation: +
[1]; drug 5% w/w, polymer inherent viscosity 0.69 dL/g, Lactide/Glycolide 50/50 (first of two such lines, r12)
  Phase Separation: −
[1]; drug 5% w/w, polymer inherent viscosity 0.69 dL/g, Lactide/Glycolide 50/50 (second of two such lines, r13)
  Phase Separation: +
[1]; drug 5% w/w, polymer inherent viscosity 0.76-0.94 dL/g, Lactide/Glycolide 50/50
  Phase Separation: +
[1]; drug 5% w/w, polymer inherent viscosity 0.87 dL/g, Lactide/Glycolide 50/50
  Phase Separation: +
[1]; drug 5% w/w, polymer inherent viscosity 0.95-1.20 dL/g, Lactide/Glycolide 50/50
  Phase Separation: −
[1]; drug 5% w/w, polymer inherent viscosity 1.15 dL/g, Lactide/Glycolide 50/50
  Phase Separation: +
[1]; drug 5% w/w, polymer inherent viscosity 1.24 dL/g, Lactide/Glycolide 50/50
  Phase Separation: +
[1]; drug 10% w/w, polymer inherent viscosity 0.16 dL/g, Lactide/Glycolide 50/50
  Phase Separation: −
[1]; drug 10% w/w, polymer inherent viscosity 0.18 dL/g, Lactide/Glycolide 75/25
  Phase Separation: +
[1]; drug 10% w/w, polymer inherent viscosity 0.26-0.54 dL/g, Lactide/Glycolide 50/50, Ester Terminated
  Phase Separation: +
[1]; drug 10% w/w, polymer inherent viscosity 0.39 dL/g, Lactide/Glycolide 50/50
  Phase Separation: −
[1]; drug 10% w/w, polymer inherent viscosity 0.55-0.75 dL/g, Lactide/Glycolide 50/50, Carbohydrate end Group
  Phase Separation: +
[1]; drug 10% w/w, polymer inherent viscosity 0.63 dL/g, Lactide/Glycolide 85/15
  Phase Separation: +
[1]; drug 10% w/w, polymer inherent viscosity 0.64 dL/g, Lactide/Glycolide 65/35
  Phase Separation: +
[1]; drug 10% w/w, polymer inherent viscosity 0.64 dL/g, Lactide/Glycolide 75/25
  Phase Separation: +
[1]; drug 10% w/w, polymer inherent viscosity 0.67 dL/g, Lactide/Glycolide 65/35
  Phase Separation: +
[1]; drug 10% w/w, polymer inherent viscosity 0.69 dL/g, Lactide/Glycolide 50/50 (first of two such lines, r12)
  Phase Separation: −
[1]; drug 10% w/w, polymer inherent viscosity 0.69 dL/g, Lactide/Glycolide 50/50 (second of two such lines, r13)
  Phase Separation: +
[1]; drug 10% w/w, polymer inherent viscosity 0.76-0.94 dL/g, Lactide/Glycolide 50/50
  Phase Separation: +
[1]; drug 10% w/w, polymer inherent viscosity 0.87 dL/g, Lactide/Glycolide 50/50
  Phase Separation: +
[1]; drug 10% w/w, polymer inherent viscosity 0.95-1.20 dL/g, Lactide/Glycolide 50/50
  Phase Separation: −
[1]; drug 10% w/w, polymer inherent viscosity 1.15 dL/g, Lactide/Glycolide 50/50
  Phase Separation: +
[1]; drug 10% w/w, polymer inherent viscosity 1.24 dL/g, Lactide/Glycolide 50/50
  Phase Separation: +
[1]; drug 15% w/w, polymer inherent viscosity 0.16 dL/g, Lactide/Glycolide 50/50
  Phase Separation: −
[1]; drug 15% w/w, polymer inherent viscosity 0.18 dL/g, Lactide/Glycolide 75/25
  Phase Separation: +
[1]; drug 15% w/w, polymer inherent viscosity 0.26-0.54 dL/g, Lactide/Glycolide 50/50, Ester Terminated
  Phase Separation: +
[1]; drug 15% w/w, polymer inherent viscosity 0.39 dL/g, Lactide/Glycolide 50/50
  Phase Separation: −
[1]; drug 15% w/w, polymer inherent viscosity 0.55-0.75 dL/g, Lactide/Glycolide 50/50, Carbohydrate end Group
  Phase Separation: +
[1]; drug 15% w/w, polymer inherent viscosity 0.63 dL/g, Lactide/Glycolide 85/15
  Phase Separation: +
[1]; drug 15% w/w, polymer inherent viscosity 0.64 dL/g, Lactide/Glycolide 65/35
  Phase Separation: +
[1]; drug 15% w/w, polymer inherent viscosity 0.64 dL/g, Lactide/Glycolide 75/25
  Phase Separation: +
[1]; drug 15% w/w, polymer inherent viscosity 0.67 dL/g, Lactide/Glycolide 65/35
  Phase Separation: +
[1]; drug 15% w/w, polymer inherent viscosity 0.69 dL/g, Lactide/Glycolide 50/50 (first of two such lines, r12)
  Phase Separation: −
[1]; drug 15% w/w, polymer inherent viscosity 0.69 dL/g, Lactide/Glycolide 50/50 (second of two such lines, r13)
  Phase Separation: +
[1]; drug 15% w/w, polymer inherent viscosity 0.76-0.94 dL/g, Lactide/Glycolide 50/50
  Phase Separation: +
[1]; drug 15% w/w, polymer inherent viscosity 0.87 dL/g, Lactide/Glycolide 50/50
  Phase Separation: +
[1]; drug 15% w/w, polymer inherent viscosity 0.95-1.20 dL/g, Lactide/Glycolide 50/50
  Phase Separation: −
[1]; drug 15% w/w, polymer inherent viscosity 1.15 dL/g, Lactide/Glycolide 50/50
  Phase Separation: +
[1]; drug 15% w/w, polymer inherent viscosity 1.24 dL/g, Lactide/Glycolide 50/50
  Phase Separation: +
[1]; drug 20% w/w, polymer inherent viscosity 0.16 dL/g, Lactide/Glycolide 50/50
  Phase Separation: −
[1]; drug 20% w/w, polymer inherent viscosity 0.18 dL/g, Lactide/Glycolide 75/25
  Phase Separation: +
[1]; drug 20% w/w, polymer inherent viscosity 0.26-0.54 dL/g, Lactide/Glycolide 50/50, Ester Terminated
  Phase Separation: +
[1]; drug 20% w/w, polymer inherent viscosity 0.39 dL/g, Lactide/Glycolide 50/50
  Phase Separation: −
[1]; drug 20% w/w, polymer inherent viscosity 0.55-0.75 dL/g, Lactide/Glycolide 50/50, Carbohydrate end Group
  Phase Separation: +
[1]; drug 20% w/w, polymer inherent viscosity 0.63 dL/g, Lactide/Glycolide 85/15
  Phase Separation: +
[1]; drug 20% w/w, polymer inherent viscosity 0.64 dL/g, Lactide/Glycolide 65/35
  Phase Separation: +
[1]; drug 20% w/w, polymer inherent viscosity 0.64 dL/g, Lactide/Glycolide 75/25
  Phase Separation: +
[1]; drug 20% w/w, polymer inherent viscosity 0.67 dL/g, Lactide/Glycolide 65/35
  Phase Separation: +
[1]; drug 20% w/w, polymer inherent viscosity 0.69 dL/g, Lactide/Glycolide 50/50 (first of two such lines, r12)
  Phase Separation: +
[1]; drug 20% w/w, polymer inherent viscosity 0.69 dL/g, Lactide/Glycolide 50/50 (second of two such lines, r13)
  Phase Separation: +
[1]; drug 20% w/w, polymer inherent viscosity 0.76-0.94 dL/g, Lactide/Glycolide 50/50
  Phase Separation: +
[1]; drug 20% w/w, polymer inherent viscosity 0.87 dL/g, Lactide/Glycolide 50/50
  Phase Separation: +
[1]; drug 20% w/w, polymer inherent viscosity 0.95-1.20 dL/g, Lactide/Glycolide 50/50
  Phase Separation: +
[1]; drug 20% w/w, polymer inherent viscosity 1.15 dL/g, Lactide/Glycolide 50/50
  Phase Separation: +
[1]; drug 20% w/w, polymer inherent viscosity 1.24 dL/g, Lactide/Glycolide 50/50
  Phase Separation: +
[2]; PC-3, 72 h, PC3, 3 day
  IC50: 2.5 ± 0.05 ng/mL
  IC90: 6.31 ± 0.17 ng/mL
[2]; PC-3, 120 h, PC3, 5 day
  IC50: 1.6 ± 0.01 ng/mL
  IC90: 5 ± 0.07 ng/mL
[2]; PC-3, 168 h, PC3, 7 day
  IC50: 1.6 ± 0.01 ng/mL
  IC90: 4.2 ± 0.08 ng/mL
[2]; PC3, 3 day
  IC75: 3.8 ± 0.03 ng/mL
[2]; PC3, 5 day
  IC75: 2.5 ± 0.02 ng/mL
[2]; PC3, 7 day
  IC75: 2.5 ± 0.01 ng/mL
[3]
  IC75: 1.9 ± 0.03 ng/mL
[3]; Homo sapiens, DU-145, 120 h
  IC50: 1.5 ± 0.04 ng/mL
  IC90: 2.4 ± 0.02 ng/mL
